Patent EP0319986B1, “Anti-plasmin depressant” (NIPPON SHINYAKU COMPANY, LIMITED, priority 1987, dated 1989)

Key:
fibrin clot = assay: Lysis by urokinase of 125I-fibrin clots formed from plasma of treated Beagle dogs; assay type: in vivo; conditions: plasma 4 Days After Administration of 30 mg/kg once a day, 37°C, 12 hours, n=3
Description: A test sample (Compound No. 2) was consecutively administered to Beagle dogs in a dose of 30 mg/kg once a day. Plasma was isolated prior to and 4 days after the administration. The α2-PI activity in plasma was measured and at the same time, fibrin clot was formed in vitro using the plasma. When urokinase as a thrombolytic agent was acted on the fibrin clot, a degree of lysis was compared between plasma prior to the administration and plasma 4 days after the administration.
To 300 µl of the isolated plasma, 40 µl of ^125I-fibrinogen (0.1 mci/ml) was added and 50 µl each of the mixture was dispensed in a test tube. 5 µl each of a solution mixture of 25 U/ml thrombin and 0.5 M calcium chloride was added to each test tube, which was incubated at 37°C for 30 minutes to prepare fibrin clots. Solutions of 15 and 30 U/ml of urokinase in 2% albumin solution and the resulting solution ware charged in each test tube by 1 ml each.
After incubating at 37°C for 12 hours, 25 µl of the supernatant was collected in an RAI tube and ^125I-fibrin decomposition products isolated in the supernatant were measured with a γ-counter. The sample number was 3 in each group.

in vivo = conditions: mouse
Description: Four (4) ddY strain male mice of 6 week age were used for each group of the test sample.
In intravenous administration, each sample was dissolved in 0.9% physiological saline and the solution was administered through the tail vein. In intraperitoneal administration, each sample was suspended in 0.5% CMC-physiological saline and 0.1 ml of the suspension per […] of mouse body weight was intraperitoneally administered. In oral administration, each sample was suspended in 0.5% CMC-physiological saline and 0.2 ml of the suspension per […] administered.
Observation was made immediately after the administration. After observation for 1 week after the administration, the mice was sacrificed with chloroform and subjected to autopsy.

[1] = test system: CPAE (calf pulmonary artery endothelia); assay: Thrombolytic test in vitro: CPAE culture supernatant on fibrin plate, lysis circle; assay type: cell-based; conditions: 5 µl of 0.2 mg/ml compound solution per well of CPAE cells, 72 hours; 5 µl supernatant on fibrin plate with plasminogen, 4 hours; 4 mm or more = thrombolytic ability induced
Description: Thrombolytic activity-inducing ability in the established vascular endothelial cell culture system was examined using CPAE (calf pulmonary artery endothelia).
[…] cells were purchased from Dainippon Pharmaceutical Co., Ltd., Department of Laboratory Products. CPAE cells were subcultured in 10% FCS-Eagle MEM medium charged in a culture flask of 25 cm^2. From the cell suspension fractionated upon subculture, 0.1 ml was transferred into a test tube with a sterilized pipette. Then, the cell suspension was diluted to 10 fold with 0.9 ml of Trypan Blue solution and a cell count was counted with a cell counter. After diluting with 10% FCS-Eagle MEM medium so as to have a cell count of 2 x 10^5 cells/ml, 100 µl each/well, namely, 2 x 10^4 cells/well, of the dilution was dispensed in a 96 well microtiter plate (manufactured by Corning) with a micropipette. The plate was incubated at 37°C in 5% CO2.
The compound used according to the present invention was dissolved in medium in 0.2 mg/ml; the compound that was insoluble in the medium was dissolved in less than 1% of DMSO and the resulting solution was aseptically filtered through a filter; 5 µl of the solution was added to the well with a sterilized micropipette 24 hours after onset of the incubation. After culturing at 37°C for 72 hours in 5% CO2, the collected culture supernatant was provided for measurement.
The measurement was performed as follows. Plasminogen, 5 µl, was charged in a well of fibrin plate (manufactured by Kitazato institute), which was allowed to stand until diffusion was completed. After diffusion, 5 µl of the supernatant was charged and then put in a carbon dioxide gas incubator of 37°C. Four hours after, evaluation was made by formation of a transparent lysis circle by fibrinolysis.
In the case of forming a circle of 4 mm or more due to fibrinolysis, it was judged that thrombolytic ability of CPAE cells was induced.
After the fibrinolytic activity was checked over, the well was fixed with 2.5% of glutaraldehyde in a final concentration. Then, the solution was discarded and the system was washed with PBS. After washing, moisture was removed. After staining with 100 µl of 0.1% crystal violet and allowing stand for 2 to 3 minutes, the system was washed with running water. After an excess of the staining solution was washed out, moisture was removed and the dye bound to the cells was eluted by 100 µl of methanol. Using multiscanning (Titertech), measurements were performed at a wavelength of 580 nm in accordance with the ABS method and the matrix method to confirm that the cells were not injured.

[2] = test system: urokinase type plasminogen activator; assay: Fibrin autography of CPAE culture solution after SDS-polyacrylamide gel electrophoresis; assay type: cell-based, calf; conditions: culture solution of CPAE cells added with compound; lysis at the position of molecular weight of urokinase type plasminogen activator
From the text: It has been clarified that the compounds used according to the present invention are capable of inducing fibrinolytic activity in CPAE cells. In order to verify by what substance in addition to the α2-PI lowering activity, this fibrinolytic activity is induced, analysis was made on the culture solution added with Compound No. 2 out of the compounds used according to the present invention, by means of fibrin autography.
By SDS-polyacrylamide gel using 10% gel, this culture solution and t-PA (tissue plasminogen activator) and urokinase were subjected to electrophoresis. After the electrophoresis, the gel was treated with 2.5% Triton X-100, which was inoculated on agar plate added with fibrinogen, thrombin and plasminogen. A place of fibrin which caused lysis was confirmed in an incubator of 37°C in 5% CO2.

α2-PI = α2-PI activity in plasma of Beagle dogs after consecutive intravenous administration (S-2251); assay type: in vivo; conditions: 30 mg/kg intravenous, consecutive 7 days, activity prior to administration = 100%, n=3
Description: Three (3) male Beagle dogs were used for the control group and the administered group, respectively, as animals to be administered.
A test sample (Compound No. 2) was dissolved in a concentration of […] 0.1 ml, using 0.1 M phosphage buffer (pH 7.2). After dissolution, the solution was sterilized by filtration through a sterile filter (pore size, 0.2 µm) and then 0.3 ml of the solution was administered per 1 kg of body weight (30 mg/kg). The administration was made through the right front limb vein for consecutive 7 days. Collected blood was mixed with 3.8% sodium citrate in a ratio of 1 : 9 by volume. By centrifugation at 3000 rpm for 15 minutes, plasma was isolated.
The α2-PI activity was measured as an inhibition activity against decomposition of plasmin with the synthetic chromogenic substrate S-2251. The results of measurement are shown as change in inhibition activity after administration based on 100% of the plasmin inhibition activity prior to administration of the test sample (Table 2). The sample number in each group was 3 samples.
The α2-PI activity was obviously depressed by consecutive administration of the test compound in a dose of 30 mg/kg.

Structure (SMILES): CN1C[C@H](O)[C@@H](O)[C@H](O)[C@H]1CO [Compound No. 2, N-methylmoranoline]
- Rate of Lysis of Fibrin Clot (%) (fibrin clot; Urokinase Activity 0 U): 21.5%
- Rate of Lysis of Fibrin Clot (%) (fibrin clot; Urokinase Activity 15 U): 63.8%
- Rate of Lysis of Fibrin Clot (%) (fibrin clot; Urokinase Activity 30 U): 93.7%
- LD50 at 168 h (in vivo; ip): 10000 mg/kg
- LD50 at 168 h (in vivo; iv): 5090 mg/kg
- LD50 at 168 h (in vivo; po): 10000 mg/kg
- Diameter (mm) of the circle due to fibrinolysis [1]: 7.9 mm
- Induction of urokinase type plasminogen activator in CPAE (fibrin autography) [2]: strongly induced production of urokinase type plasminogen activator
- α2-PI activity (%) (α2-PI; Day 1): 95%
- α2-PI activity (%) (α2-PI; Day 2): 83%
- α2-PI activity (%) (α2-PI; Day 3): 84%
- α2-PI activity (%) (α2-PI; Day 4): 76%
- α2-PI activity (%) (α2-PI; Day 5): 75%
- α2-PI activity (%) (α2-PI; Day 6): 86%
- α2-PI activity (%) (α2-PI; Day 7): 89%
